{"source": "patent US7402601B2", "about": "“Pharmaceuticals for the treatment of rejection reactions in organ transplantations” (Sanofi-Aventis Deutschland GmbH, priority 1991, dated 2008)", "key": {"in vivo": {"experiment": "in vivo", "conditions": "ip", "method": "Acute Toxicity after Intraperitoneal Administration\nThe acute toxicity after intraperitoneal administration of the test substances was determined with NMRI mice (20 to 25 g) and SD rats (120 to 195 g). The test substance was suspended in a 1% strength sodium carboxymethyl-cellulose solution. The different dosages of the test substance were administered to the mice in a volume of 10 ml/kg of body weight and to the rats in a volume of 5 ml/kg of body weight. Per dosage, 10 animals were used. After 3 weeks, the acute toxicity was determined by the method of Litchfield and Wilcoxon."}, "[1]": {"system": "naturally occurring xenophilic antibodies (NXA)", "experiment": "Naturally occurring xenophilic antibodies (NXA) in non-sensitized rats, flow cytometry", "type": "in vivo", "conditions": "non-sensitized LEW rats, 10 mg/kg every day i.p., 11th day", "method": "2 to 3 month-old rats (LEW) are intraperitoneally (i.p.) sensitized with 2×10^7 human peripheral blood lymphocytes. The i.p. administration of compound 2 starts 4 days before sensitization and ends 10 days after sensitization of the rats. Serum samples are taken from the tail vein and stored at −80° C.; the activity of complement is avoided by heat deactivation.\nThe naturally occurring xenophilic antibodies (NXA) and the xenophilic antibodies induced by sensitization (SXA) are titrated and live human peripheral blood lymphocytes are added (45 min. at 20° C.). After intensive washing, FITC-labeled goat-anti-rat IgG or IgM antibodies are added and the binding to SXA or NXA is quantitatively determined by flow cytometry (FACScan, Becton Dickinson).\nThe serum of male LEW rats contain NXA which bind to vital human peripheral blood lymphocytes, to be precise usually with an average IgM titer of 1:4 and an average IgG titer of less than 1:1. The rats (n=8) which are treated every day with 10 mg/kg of compound 2, show a 30% reduction in their IgG titer and a 50% reduction in their IgM titer on the 11th day."}, "allophilic antibodies": {"system": "allophilic antibodies", "experiment": "Formation of allophilic antibodies after heart transplantation (Brown-Norway to Lewis rats), complement cytotoxicity on donor spleen cells, Trypan Blue exclusion", "type": "in vivo", "method": "The action of compound 2 on the formation of allophilic antibodies.\nMale Brown-Norway rats with a weight of 200 to 250 g are used as heart donors. The hearts are transplanted into male Lewis rats of the same weight. All rats are supplied with a standard diet and water and kept in an environment with 12 hours of light and darkness.\n[…] The titer of allophilic antibodies in the blood of the recipient rats is determined by incubating various dilutions of the recipient blood with spleen cells of the donor rats (Brown-Norway rats) and rabbit complement. The cytotoxicity is determined by the Trypan Blue exclusion method. The p value for the antibodies is determined using the standard t-test and compared with the untreated control animals.\nTreatment with compound 2 begins on the 4th day after transplantation. 10 mg/kg of compound 2 in each case are administered i.p. once per day. The number of animals which are simultaneously treated is 5 (n=5). Treatment ends on the 17th day."}}}
{"smiles": "Cc1oncc1C(=O)Nc1ccc(C(F)(F)F)cc1", "note": "[Compound 1, N-(4-trifluoromethyl)-5-methylisoxazole-4-carboxanilide]", "values": [{"measurement": "LD50 at 3 weeks", "setting": "in vivo; NMRI, mouse", "result": 185, "unit": "mg/kg"}, {"measurement": "LD50 at 3 weeks", "setting": "in vivo; SD, rat", "result": 170, "unit": "mg/kg"}]}
{"smiles": "C/C(O)=C(\\C#N)C(=O)Nc1ccc(C(F)(F)F)cc1", "note": "[Compound 2, N-(4-trifluoromethylphenyl)-2-cyano-3-hydroxycrotonamide]", "values": [{"measurement": "reduction in IgG titer (NXA)", "setting": "[1]", "result": 30, "unit": "%"}, {"measurement": "reduction in IgM titer (NXA)", "setting": "[1]", "result": 50, "unit": "%"}, {"measurement": "mean of the cytotoxicity values", "setting": "allophilic antibodies; serum dilution 1:5, day 0 after transplantation (before treatment start on day 4), 10 mg/kg i.p. once per day", "result": 3, "unit": "%"}, {"measurement": "mean of the cytotoxicity values", "setting": "allophilic antibodies; serum dilution 1:5, day 4 after transplantation (treatment begins), 10 mg/kg i.p. once per day", "result": 63, "unit": "%"}, {"measurement": "mean of the cytotoxicity values", "setting": "allophilic antibodies; serum dilution 1:5, day 7 after transplantation, 10 mg/kg i.p. once per day from day 4", "result": 36, "unit": "%"}, {"measurement": "mean of the cytotoxicity values", "setting": "allophilic antibodies; serum dilution 1:5, day 11 after transplantation, 10 mg/kg i.p. once per day from day 4", "result": 19, "unit": "%"}, {"measurement": "mean of the cytotoxicity values", "setting": "allophilic antibodies; serum dilution 1:5, day 14 after transplantation, 10 mg/kg i.p. once per day from day 4", "result": 22, "unit": "%"}, {"measurement": "mean of the cytotoxicity values", "setting": "allophilic antibodies; serum dilution 1:5, day 17 after transplantation, 10 mg/kg i.p. once per day from day 4", "result": 11, "unit": "%"}, {"measurement": "mean of the cytotoxicity values", "setting": "allophilic antibodies; serum dilution 1:25, day 0 after transplantation (before treatment start on day 4), 10 mg/kg i.p. once per day", "result": 3, "unit": "%"}, {"measurement": "mean of the cytotoxicity values", "setting": "allophilic antibodies; serum dilution 1:25, day 4 after transplantation (treatment begins), 10 mg/kg i.p. once per day", "result": 58, "unit": "%"}, {"measurement": "mean of the cytotoxicity values", "setting": "allophilic antibodies; serum dilution 1:25, day 7 after transplantation, 10 mg/kg i.p. once per day from day 4", "result": 31, "unit": "%"}, {"measurement": "mean of the cytotoxicity values", "setting": "allophilic antibodies; serum dilution 1:25, day 11 after transplantation, 10 mg/kg i.p. once per day from day 4", "result": 16, "unit": "%"}, {"measurement": "mean of the cytotoxicity values", "setting": "allophilic antibodies; serum dilution 1:25, day 14 after transplantation, 10 mg/kg i.p. once per day from day 4", "result": 11, "unit": "%"}, {"measurement": "mean of the cytotoxicity values", "setting": "allophilic antibodies; serum dilution 1:25, day 17 after transplantation, 10 mg/kg i.p. once per day from day 4", "result": 6, "unit": "%"}, {"measurement": "mean of the cytotoxicity values", "setting": "allophilic antibodies; serum dilution 1:125, day 0 after transplantation (before treatment start on day 4), 10 mg/kg i.p. once per day", "result": 4, "unit": "%"}, {"measurement": "mean of the cytotoxicity values", "setting": "allophilic antibodies; serum dilution 1:125, day 4 after transplantation (treatment begins), 10 mg/kg i.p. once per day", "result": 34, "unit": "%"}, {"measurement": "mean of the cytotoxicity values", "setting": "allophilic antibodies; serum dilution 1:125, day 7 after transplantation, 10 mg/kg i.p. once per day from day 4", "result": 20, "unit": "%"}, {"measurement": "mean of the cytotoxicity values", "setting": "allophilic antibodies; serum dilution 1:125, day 11 after transplantation, 10 mg/kg i.p. once per day from day 4", "result": 9, "unit": "%"}, {"measurement": "mean of the cytotoxicity values", "setting": "allophilic antibodies; serum dilution 1:125, day 14 after transplantation, 10 mg/kg i.p. once per day from day 4", "result": 6, "unit": "%"}, {"measurement": "mean of the cytotoxicity values", "setting": "allophilic antibodies; serum dilution 1:125, day 17 after transplantation, 10 mg/kg i.p. once per day from day 4", "result": 5, "unit": "%"}, {"measurement": "LD50 at 3 weeks", "setting": "in vivo; NMRI, mouse", "result": 150, "unit": "mg/kg"}]}
